Results published in US6040300A, “Method of preventing colon cancer with vitamin D3 analogues” (Arch Development Corporation, priority 1995, dated 2000).
Entries after “also recorded” stand apart in the source; their conditions may differ.

Key:
[1] = Serum 1α,25(OH)2 D3 levels (competitive protein-binding assay, calf thymus receptor); format: in vivo, Male albino Fisher-344 rats; conditions: all test groups
Text: Male albino Fisher-344 rats, initially weighing ~90-100 g, were used in these studies. On arrival, the animals were quarantined for 1 wk and then randomly divided into the following six test groups: groups 1 and 2, standard vitamin D-sufficient diet; groups 3 and 4, standard diet supplemented with RO24-5531 (2.50 nmol/kg of feed); and groups 5 and 6, standard vitamin D-sufficient diet. […] Next, the rats in groups 2,4 and 6 were given subcutaneous injections of azoxymethane (AOM, Sigma Chemical Co., St. Louis, Mo.), 15 mg/kg body wt once a wk for 2 wks, while the rats in groups 1,3 and 5 received AOM-vehicle (saline). […]
All rats were sacrificed in the non-fasting state after 34 wks on these protocols between 9 a.m. and 11 a.m. and sera obtained for measurement of calcium, phosphate, 25(OH)D3 and 1α,25(OH)2 D3 levels. […] All specimens were evaluated by a pathologist who was unaware of the dietary or AOM treatment history. […]
Serum calcium and phosphorus were measured by standard colorimetric methods (Kessler and Wolfman, Clin. Chem. 10:686-703, 1964). Serum 25(OH)D3 levels were measured by radioimmunoassay, using a kit and procedure supplied by Incstar (Stillwater, Minn.). […]
Results are expressed as means ±SE of n determinations. Data were analyzed by Fisher's exact test (two-tailed) or analysis of variance (ANOVA) as appropriate (Snedecor and Cochran, Statistical Methods, 1980). […]

HL-60 cells = conditions: cited from earlier work

SMILES: C=C1/C(=C\C=C2/CCC[C@]3(C)C([C@H](C)CC#CC(O)(C(F)(F)F)C(F)(F)F)=CC[C@@H]23)C[C@@H](O)C[C@@H]1O [RO24-5531, 26,26,26,27,27,27-hexafluoro-1α,25-dihydroxy-16-ene-23-yne-cholecalciferol]
- effect on serum 1α,25(OH)2 D3 levels [1]: no differences were observed
- induction of differentiation (HL-60 cells): induction of differentiation
- inhibition of proliferation (HL-60 cells): inhibit proliferation of HL-60 cells; also recorded: inhibition of proliferation
